Assay [1] concerns the target Mitogen-activated protein kinase 11 (Homo sapiens) (UniProt Q15759). In words: Residual activity of p38beta at 1 uM by microplate scintillation counting.
Assay [2] has as its target Serine/threonine-protein kinase B-raf (Homo sapiens) (UniProt P15056). In words: Residual activity of Wild type B-RAF at 10 uM by microplate scintillation counting.
For assay [3], the system named is Epidermal growth factor receptor (Homo sapiens), P00533 [T790M]. In words: Residual activity of EGFR T790M mutant at 0.1 uM by microplate scintillation counting.
The target in assay [4] is Ephrin type-A receptor 2 (Homo sapiens) (UniProt P29317). In words: Residual activity of EPHA2 at 10 uM by microplate scintillation counting.
The target in assay [5] is T1, Serine/threonine-protein kinase TBK1 (Homo sapiens) (UniProt Q9UHD2).
T1 sequence (whole entry): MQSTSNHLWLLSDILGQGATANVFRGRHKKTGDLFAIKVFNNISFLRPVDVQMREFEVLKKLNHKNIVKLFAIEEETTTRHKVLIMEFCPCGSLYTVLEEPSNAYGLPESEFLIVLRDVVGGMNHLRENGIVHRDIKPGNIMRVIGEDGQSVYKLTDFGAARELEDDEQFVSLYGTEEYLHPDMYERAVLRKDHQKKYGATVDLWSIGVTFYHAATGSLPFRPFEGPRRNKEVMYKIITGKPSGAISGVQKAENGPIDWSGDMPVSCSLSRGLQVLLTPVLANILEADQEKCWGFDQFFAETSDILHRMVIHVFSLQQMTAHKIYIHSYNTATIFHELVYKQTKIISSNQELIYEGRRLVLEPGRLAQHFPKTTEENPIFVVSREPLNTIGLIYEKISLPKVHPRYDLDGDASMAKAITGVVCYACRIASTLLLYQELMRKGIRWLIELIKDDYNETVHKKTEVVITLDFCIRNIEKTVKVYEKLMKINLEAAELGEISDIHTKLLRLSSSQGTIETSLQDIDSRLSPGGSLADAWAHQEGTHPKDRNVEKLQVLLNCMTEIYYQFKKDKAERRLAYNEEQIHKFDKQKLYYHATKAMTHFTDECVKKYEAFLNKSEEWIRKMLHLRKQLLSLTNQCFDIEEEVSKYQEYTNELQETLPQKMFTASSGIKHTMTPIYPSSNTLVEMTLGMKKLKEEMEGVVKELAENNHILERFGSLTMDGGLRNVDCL
In words: Residual activity of TBK1 at 1 uM by microplate scintillation counting.

Assay [6] concerns the target Homeodomain-interacting protein kinase 1 (Homo sapiens) (UniProt Q86Z02). In words: Residual activity of HIPK1 at 1 uM by microplate scintillation counting.
The target in assay [7] is Vascular endothelial growth factor receptor 2 (Homo sapiens, UniProt P35968). In words: Residual activity of VEGFR2 at 0.1 uM by microplate scintillation counting.
For assay [8], the system named is T2, Receptor-type tyrosine-protein kinase FLT3 (Homo sapiens), P36888 [D835Y].
T2 sequence (whole entry): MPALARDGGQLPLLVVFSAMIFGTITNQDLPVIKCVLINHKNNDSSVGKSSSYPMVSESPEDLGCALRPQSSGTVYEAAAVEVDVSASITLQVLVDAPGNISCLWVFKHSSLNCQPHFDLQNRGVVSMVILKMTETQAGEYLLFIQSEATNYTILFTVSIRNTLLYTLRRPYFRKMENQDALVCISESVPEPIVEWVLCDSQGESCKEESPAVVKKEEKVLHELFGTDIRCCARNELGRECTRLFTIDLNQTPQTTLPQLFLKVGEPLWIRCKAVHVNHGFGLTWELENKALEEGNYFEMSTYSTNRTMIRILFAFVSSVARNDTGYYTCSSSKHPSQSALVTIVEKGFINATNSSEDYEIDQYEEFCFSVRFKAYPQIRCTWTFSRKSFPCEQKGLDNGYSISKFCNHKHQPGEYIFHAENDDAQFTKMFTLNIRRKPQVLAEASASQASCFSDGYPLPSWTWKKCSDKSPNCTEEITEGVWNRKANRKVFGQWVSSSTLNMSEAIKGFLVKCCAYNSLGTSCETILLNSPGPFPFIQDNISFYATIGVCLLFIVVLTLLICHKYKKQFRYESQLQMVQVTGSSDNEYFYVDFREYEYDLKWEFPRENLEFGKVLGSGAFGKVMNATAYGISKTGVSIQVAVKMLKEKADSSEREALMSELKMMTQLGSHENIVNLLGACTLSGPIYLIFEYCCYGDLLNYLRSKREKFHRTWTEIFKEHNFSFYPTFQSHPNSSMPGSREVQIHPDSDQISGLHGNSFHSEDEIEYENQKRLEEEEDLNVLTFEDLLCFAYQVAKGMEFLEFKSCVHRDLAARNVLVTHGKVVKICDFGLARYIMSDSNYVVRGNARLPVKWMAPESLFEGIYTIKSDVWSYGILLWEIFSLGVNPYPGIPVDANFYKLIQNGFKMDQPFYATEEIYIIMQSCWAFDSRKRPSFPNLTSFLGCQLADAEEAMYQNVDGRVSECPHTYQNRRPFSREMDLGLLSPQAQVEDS
In words: Residual activity of FLT3 D835Y mutant at 10 uM by microplate scintillation counting.

In assay [9] the target is Cyclin-dependent kinase 1/cyclin B1 (Homo sapiens) (UniProt P06493+P14635). In words: Residual activity of CDK1/CyclinB1 at 1 uM by microplate scintillation counting. The format is protein-complex assay.
Cyclin-dependent kinase 1/cyclin B1 (Homo sapiens), sequence (P06493 whole entry, looked up): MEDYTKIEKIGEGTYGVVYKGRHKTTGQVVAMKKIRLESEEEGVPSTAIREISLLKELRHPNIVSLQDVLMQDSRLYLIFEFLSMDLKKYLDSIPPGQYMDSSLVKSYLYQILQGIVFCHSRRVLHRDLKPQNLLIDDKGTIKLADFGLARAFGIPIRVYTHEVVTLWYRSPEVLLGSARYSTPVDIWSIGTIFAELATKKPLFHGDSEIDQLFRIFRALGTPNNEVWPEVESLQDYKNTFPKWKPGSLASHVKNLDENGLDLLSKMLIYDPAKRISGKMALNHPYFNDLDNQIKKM
Cyclin-dependent kinase 1/cyclin B1 (Homo sapiens), sequence (P14635 whole entry, looked up): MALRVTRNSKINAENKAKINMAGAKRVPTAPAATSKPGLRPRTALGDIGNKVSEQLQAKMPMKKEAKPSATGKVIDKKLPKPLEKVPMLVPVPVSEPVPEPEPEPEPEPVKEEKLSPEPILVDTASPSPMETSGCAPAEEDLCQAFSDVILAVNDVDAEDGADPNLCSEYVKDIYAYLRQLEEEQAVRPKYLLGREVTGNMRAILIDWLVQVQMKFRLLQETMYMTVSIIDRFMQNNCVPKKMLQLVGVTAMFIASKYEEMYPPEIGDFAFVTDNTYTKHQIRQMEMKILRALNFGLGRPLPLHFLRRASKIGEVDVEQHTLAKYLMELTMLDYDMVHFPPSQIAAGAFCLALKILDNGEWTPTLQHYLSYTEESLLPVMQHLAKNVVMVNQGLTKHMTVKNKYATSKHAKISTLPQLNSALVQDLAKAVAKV

Homeodomain-interacting protein kinase 1 (Homo sapiens), sequence (Q86Z02 whole entry, looked up): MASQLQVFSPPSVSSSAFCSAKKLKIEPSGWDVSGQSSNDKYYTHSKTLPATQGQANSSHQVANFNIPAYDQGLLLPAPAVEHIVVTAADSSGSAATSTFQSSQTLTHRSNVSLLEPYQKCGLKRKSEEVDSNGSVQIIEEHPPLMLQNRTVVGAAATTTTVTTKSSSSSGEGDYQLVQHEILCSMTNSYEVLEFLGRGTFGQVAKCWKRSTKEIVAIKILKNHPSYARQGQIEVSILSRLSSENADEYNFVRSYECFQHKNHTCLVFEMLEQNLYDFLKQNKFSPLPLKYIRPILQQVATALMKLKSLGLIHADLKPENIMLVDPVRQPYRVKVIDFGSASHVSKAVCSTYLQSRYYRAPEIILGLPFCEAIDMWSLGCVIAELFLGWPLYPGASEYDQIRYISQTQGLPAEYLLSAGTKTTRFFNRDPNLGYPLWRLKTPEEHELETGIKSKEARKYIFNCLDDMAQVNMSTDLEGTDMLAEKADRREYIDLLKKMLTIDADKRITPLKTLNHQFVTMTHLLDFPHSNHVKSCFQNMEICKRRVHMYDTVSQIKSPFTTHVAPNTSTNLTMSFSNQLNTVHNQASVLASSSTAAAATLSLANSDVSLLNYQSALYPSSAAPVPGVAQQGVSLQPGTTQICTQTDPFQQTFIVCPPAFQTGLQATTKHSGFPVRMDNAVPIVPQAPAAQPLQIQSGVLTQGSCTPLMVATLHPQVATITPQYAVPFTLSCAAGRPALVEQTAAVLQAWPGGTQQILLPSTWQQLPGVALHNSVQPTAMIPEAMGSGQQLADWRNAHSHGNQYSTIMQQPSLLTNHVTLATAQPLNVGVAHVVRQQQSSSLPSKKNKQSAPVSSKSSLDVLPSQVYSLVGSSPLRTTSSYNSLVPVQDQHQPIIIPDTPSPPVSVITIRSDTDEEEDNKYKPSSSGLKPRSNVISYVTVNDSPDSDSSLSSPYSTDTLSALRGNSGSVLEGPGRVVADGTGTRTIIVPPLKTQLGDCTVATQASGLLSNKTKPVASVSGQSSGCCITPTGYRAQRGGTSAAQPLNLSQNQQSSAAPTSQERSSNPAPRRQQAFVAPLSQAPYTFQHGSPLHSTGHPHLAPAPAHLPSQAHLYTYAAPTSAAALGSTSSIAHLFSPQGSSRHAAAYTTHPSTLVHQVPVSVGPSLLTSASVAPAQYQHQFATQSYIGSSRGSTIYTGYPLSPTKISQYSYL
Vascular endothelial growth factor receptor 2, sequence (P35968 whole entry): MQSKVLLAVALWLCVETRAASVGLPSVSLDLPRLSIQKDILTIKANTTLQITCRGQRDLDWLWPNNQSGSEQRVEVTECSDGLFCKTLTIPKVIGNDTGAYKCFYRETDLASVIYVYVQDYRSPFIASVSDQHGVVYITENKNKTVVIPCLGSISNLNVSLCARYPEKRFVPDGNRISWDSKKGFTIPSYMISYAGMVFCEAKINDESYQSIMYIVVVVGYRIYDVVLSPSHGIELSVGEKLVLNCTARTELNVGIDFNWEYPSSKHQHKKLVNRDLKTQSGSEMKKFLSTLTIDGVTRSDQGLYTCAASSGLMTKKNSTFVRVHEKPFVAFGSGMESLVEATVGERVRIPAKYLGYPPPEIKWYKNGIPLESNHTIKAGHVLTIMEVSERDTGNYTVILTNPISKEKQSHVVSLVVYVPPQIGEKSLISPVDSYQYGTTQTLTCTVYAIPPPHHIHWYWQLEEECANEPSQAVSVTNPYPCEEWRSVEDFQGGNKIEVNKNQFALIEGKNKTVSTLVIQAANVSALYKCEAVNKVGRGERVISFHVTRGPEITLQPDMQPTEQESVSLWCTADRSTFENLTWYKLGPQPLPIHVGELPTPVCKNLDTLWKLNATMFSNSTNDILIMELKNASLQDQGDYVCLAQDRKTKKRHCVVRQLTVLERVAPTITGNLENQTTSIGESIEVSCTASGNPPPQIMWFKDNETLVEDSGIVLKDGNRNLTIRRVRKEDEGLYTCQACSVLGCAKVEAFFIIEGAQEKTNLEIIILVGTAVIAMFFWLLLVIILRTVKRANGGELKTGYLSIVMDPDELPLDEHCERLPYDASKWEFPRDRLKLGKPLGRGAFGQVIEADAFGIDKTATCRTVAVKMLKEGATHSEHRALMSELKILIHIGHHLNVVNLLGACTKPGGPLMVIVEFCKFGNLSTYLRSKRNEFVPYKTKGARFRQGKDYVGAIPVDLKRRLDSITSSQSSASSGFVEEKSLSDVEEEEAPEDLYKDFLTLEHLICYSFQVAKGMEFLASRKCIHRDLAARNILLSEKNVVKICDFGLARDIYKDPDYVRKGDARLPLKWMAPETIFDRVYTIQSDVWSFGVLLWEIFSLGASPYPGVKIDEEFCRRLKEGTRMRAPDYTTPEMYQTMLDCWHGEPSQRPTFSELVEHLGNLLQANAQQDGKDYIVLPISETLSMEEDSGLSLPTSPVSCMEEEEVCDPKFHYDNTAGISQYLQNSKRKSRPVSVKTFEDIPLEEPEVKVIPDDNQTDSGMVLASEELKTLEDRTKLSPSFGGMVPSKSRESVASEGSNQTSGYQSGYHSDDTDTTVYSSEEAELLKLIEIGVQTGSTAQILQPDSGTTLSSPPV
Serine/threonine-protein kinase B-raf (Homo sapiens), sequence (P15056 whole entry): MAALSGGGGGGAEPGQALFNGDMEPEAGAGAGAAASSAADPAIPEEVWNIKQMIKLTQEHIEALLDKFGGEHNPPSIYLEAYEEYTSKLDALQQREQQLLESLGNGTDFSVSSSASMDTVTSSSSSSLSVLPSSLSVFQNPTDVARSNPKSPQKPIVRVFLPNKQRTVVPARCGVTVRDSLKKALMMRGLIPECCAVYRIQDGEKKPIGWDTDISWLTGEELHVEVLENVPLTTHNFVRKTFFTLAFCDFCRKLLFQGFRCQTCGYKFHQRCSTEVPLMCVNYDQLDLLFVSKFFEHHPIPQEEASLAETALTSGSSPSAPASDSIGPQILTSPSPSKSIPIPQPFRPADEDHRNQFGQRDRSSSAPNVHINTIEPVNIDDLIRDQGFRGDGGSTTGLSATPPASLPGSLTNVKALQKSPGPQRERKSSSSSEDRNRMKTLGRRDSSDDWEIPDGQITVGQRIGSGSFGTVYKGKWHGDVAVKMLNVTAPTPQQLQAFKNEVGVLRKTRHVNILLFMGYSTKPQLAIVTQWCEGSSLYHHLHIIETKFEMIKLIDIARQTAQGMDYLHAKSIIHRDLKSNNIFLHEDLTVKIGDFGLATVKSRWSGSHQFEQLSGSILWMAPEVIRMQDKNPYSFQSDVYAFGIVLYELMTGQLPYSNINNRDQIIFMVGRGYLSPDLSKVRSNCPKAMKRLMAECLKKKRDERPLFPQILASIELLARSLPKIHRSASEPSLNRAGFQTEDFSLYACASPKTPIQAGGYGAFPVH
Mitogen-activated protein kinase 11 (Homo sapiens), sequence (Q15759 whole entry): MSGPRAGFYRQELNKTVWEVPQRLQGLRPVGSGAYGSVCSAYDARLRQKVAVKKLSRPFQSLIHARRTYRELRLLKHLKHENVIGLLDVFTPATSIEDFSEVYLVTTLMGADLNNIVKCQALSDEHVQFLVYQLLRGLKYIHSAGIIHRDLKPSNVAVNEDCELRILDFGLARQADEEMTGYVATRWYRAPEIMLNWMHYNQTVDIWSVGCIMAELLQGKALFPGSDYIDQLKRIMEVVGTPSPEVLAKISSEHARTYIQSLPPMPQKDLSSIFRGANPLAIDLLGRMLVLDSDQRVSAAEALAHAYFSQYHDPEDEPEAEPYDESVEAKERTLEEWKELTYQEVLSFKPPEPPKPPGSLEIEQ

With `COc1cc2c(Oc3ccc(-c4nc5ccccc5s4)cc3)ncnc2cc1OCCCN1CCN(C)CC1`, the residual activity in [1] was 126%; in assay [2], 70%; in assay [3], 97%; in assay [4] it was 190%; in [5] it was 85%; in assay [6], 82%. Besides, the residual activity is 65% in [7], 19% in assay [8] and 89% in [9].

`COc1cc2c(Oc3ccc(-c4nc5ccccc5s4)cc3)ncnc2cc1OCCCN1CCCC1`: the residual activity was determined as 125% in assay [1]; 51% in assay [2]; 68% in assay [3]; 187% in assay [4]; 92% in assay [5]; 77% in assay [6]. Also, the residual activity in assay [7] came to 73%; in assay [8] it was 48%; in [9], 81%.

As for `COc1cc2c(Oc3ccc(-c4nc5ccccc5s4)cc3F)ncnc2cc1OCCCN1CCN(C)CC1`, the residual activity stood at 129% in [1]; 74% in assay [2]; 85% in assay [3]; 73% in assay [4]; 99% in [5]; 81% in [6]. Moreover, the results for the residual activity in assay [7], in [8] and in assay [9] were 73%, 18% and 99%, respectively.

(Values after ChEMBL document CHEMBL1152560, “Substituted 2-arylbenzothiazoles as kinase inhibitors: hit-to-lead optimization” (Bioorg Med Chem, 2009).)
